For test [1], the system named is aldose reductase. Description: reduction of sciatic nerve sorbitol in streptozotocin-diabetic rats (inhibition of aldose reductase in vivo). Further details: species or system rat. To be noted: 5 daily oral doses of 3 mg/kg. The method, then:
Rats are made diabetic (as evidenced by severe glucosuria being present) by dosing with streptozotocin. The animals are then dosed daily with the test compound for one, two or five days. The animals are then sacrificed 2-6 hours after the final dose and the eye lenses and/or sciatic nerves are removed. After a standard work-up procedure the residual sorbitol levels in each tissue are determined by gas liquid chromatography after conversion to the polytrimethylsilyl derivatives. Inhibition of aldose reductase in vivo can then be assessed by comparing the residual sorbitol levels in tissues from the dosed diabetic group of rats with those of an undosed group of diabetic rats and an undosed group of normal rats.
In a variation of the above test diabetic rats are dosed at a fixed daily oral dose for five days and then sacrificed 6 hours after the final dose and the reduction of sciatic nerve sorbitol assessed relative to that in control animals.

The target in test [2] is T1, aldose reductase (Bos taurus, UniProt P16116).
T1 construct: partially purified aldose reductase is isolated in known manner from bovine lenses; from tissue; host or cells: bovine lenses
Description: inhibition in vitro of partially purified aldose reductase isolated from bovine lenses (spectrophotometric). Type of test: biochemical. To be noted: bovine lens aldose reductase. An excerpt:
Thus, in a standard procedure partially purified aldose reductase is isolated in known manner from bovine lenses. The percentage inhibition of this enzyme's ability in vitro to catalyse the reduction of aldoses to polyhydric alcohols, and particularly to reduce glucose to sorbitol, caused by a test compound can then be determined using standard spectrophotometric methods.

SMILES strings stand for the structures.

Turning to `Cc1cc(NC(=O)Cc2ccccc2)cc(C)c1S(=O)(=O)C[N+](=O)[O-]` [Example 1, (2,6-dimethyl-4-[phenylacetamido]phenylsulfonyl)nitromethane], in the test with aldose reductase [1], the “reduction in sciatic nerve sorbitol levels” value was determined as 83%. Besides, the 50% inhibitory concentration (IC50) (as a rule, the point on the concentration scale where inhibition reaches its midpoint) on aldose reductase [2] was 118 nM.
